Tests used:
human MAO-A = target: T1, human MAO-A (Homo sapiens, UniProt P21397); test: MAO inhibitory assay (kynuramine, fluorescence), MAO-A; assay type: biochemical; conditions: human recombinant enzyme, kynuramine substrate, 37° C., pH 7.4
T1 sequence (P21397 1-527): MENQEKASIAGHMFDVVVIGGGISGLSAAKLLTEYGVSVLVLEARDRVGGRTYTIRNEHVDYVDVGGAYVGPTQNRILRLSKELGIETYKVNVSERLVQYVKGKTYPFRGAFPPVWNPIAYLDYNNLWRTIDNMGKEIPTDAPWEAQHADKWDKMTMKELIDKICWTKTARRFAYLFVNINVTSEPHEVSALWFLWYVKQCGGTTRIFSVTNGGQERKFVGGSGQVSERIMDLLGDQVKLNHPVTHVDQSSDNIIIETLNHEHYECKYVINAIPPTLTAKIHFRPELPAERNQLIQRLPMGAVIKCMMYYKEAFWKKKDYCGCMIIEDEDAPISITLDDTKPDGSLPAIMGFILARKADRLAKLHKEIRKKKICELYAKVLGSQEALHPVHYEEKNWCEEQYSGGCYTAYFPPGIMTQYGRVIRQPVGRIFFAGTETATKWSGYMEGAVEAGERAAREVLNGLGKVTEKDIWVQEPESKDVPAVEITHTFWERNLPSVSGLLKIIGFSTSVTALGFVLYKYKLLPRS
Procedure: (§1) MAO inhibitory activity was assayed using the method of Novaroli et al. with minor modifications. Briefly, 140 μL of 0.1 M potassium phosphate buffer (pH 7.4), 8 μL of 0.75 mM kynuramine, and 2 μL of a dimethyl sulfoxide (DMSO) inhibitor solution (final DMSO concentration of 1% (v/v) and final concentrations of the inhibitors of 0-1 μM), were preincubated at 37° C. for 10 min. Diluted human recombinant enzyme (50 μL) was then added to obtain a final protein concentration of 0.0075 mg/mL (MAO-A) or 0.015 mg/mL (MAO-B) in the assay mixture. The reaction mixture was further incubated at 37° C. and the reaction was stopped after 20 min by the addition of 75 μL of 2 M NaOH. The product generated by MAO, 4-quinolinol, is fluorescent and was measured at Ex 310 nm/Em 400 nm using a microplate reader (Thermo Scientific-Multiskan GO). Each data points of samples were triplicate. The sample solution was replaced with DMSO to provide a negative control.

human MAO-B = target: T2, human MAO-B (Homo sapiens, UniProt P27338); test: MAO inhibitory assay (kynuramine, fluorescence), MAO-B; assay type: biochemical
T2 sequence (P27338 1-520): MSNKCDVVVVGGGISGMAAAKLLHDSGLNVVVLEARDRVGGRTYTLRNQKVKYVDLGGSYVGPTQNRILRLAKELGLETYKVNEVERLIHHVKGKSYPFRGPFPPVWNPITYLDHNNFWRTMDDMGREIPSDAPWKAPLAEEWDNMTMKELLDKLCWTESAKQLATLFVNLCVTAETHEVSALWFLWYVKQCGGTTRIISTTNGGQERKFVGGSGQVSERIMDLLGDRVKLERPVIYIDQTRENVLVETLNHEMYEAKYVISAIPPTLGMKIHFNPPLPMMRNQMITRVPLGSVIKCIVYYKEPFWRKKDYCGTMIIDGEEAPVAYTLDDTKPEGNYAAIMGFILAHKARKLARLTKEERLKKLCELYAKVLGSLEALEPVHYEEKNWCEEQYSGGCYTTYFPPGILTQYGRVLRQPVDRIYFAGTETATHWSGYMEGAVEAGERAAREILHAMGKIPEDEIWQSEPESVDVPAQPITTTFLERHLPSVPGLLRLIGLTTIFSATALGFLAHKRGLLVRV
Procedure: as §1

IC50 (human MAO-A): 29.5 ± 1.1 nM
IC50 (human MAO-B; human recombinant enzyme, kynuramine substrate, 37° C., pH 7.4): 3.22 ± 0.02 nM
fold more potent binding to MOA-B compared to MOA-A (human MAO-B; ratio of IC50 MAO-A / MAO-B): approximately 9 fold
Structure (SMILES): COc1ccc(-c2cc(C(=O)NCCn3cnc4ccccc43)n[nH]2)cc1OC [compound of formula I]

Source: US12478613B2, “Selective MAO-B inhibitor DRG-MAOB-2 for use in treatment of neurodegenerative diseases” (BAHCESEHIR UNIVERSITESI, priority 2020, dated 2025)
